Experimental data reported in US5686452A, “Indane derivative and processes for preparing the same” (Tanabe Seiyaku Co., Ltd., priority 1994, dated 1997).

Tested on: rat glomerular nephritis
Test: Action on rat glomerular nephritis (nephrotoxic serum-induced nephritis; urinary protein excretion)
Assay type: in vivo
Conditions: male WKY rats, NTS-induced nephritis; 30 mg/kg/10 ml orally twice a day for 8 days; 24 h urine collected after 7 days
Procedure: (Action on rat glomerular nephritis)
Rabbits were immunized several times with a renal glomerular basement membrane fraction obtained from WKY strain rats and an adjuvant. Thereafter, blood was collected to obtain a nephrotoxic serum (NTS). This NTS was diluted by 50 times with physiological saline, and the diluted NTS was once administered intravenously to male WKY rats of 8 weeks old in a dose of 2.5 ml per 1 kg of body weight to induce nephritis. In normal group of rats, the same volume of physiological saline was intravenously administered.
In the experiment, one group consisted of 6 rats, and each compound to be tested was suspended in water with small amount of Tween 80 (trade name, produced by Nacalai Tesque Co.), and was orally administered to the test group of rats at a dose of 30 mg/kg/10 ml twice a day for 8 days. In normal group and control group of rats, the same volume of water was orally administered instead of the test compound. After 7 days, the rats were placed in metabolic cages and urine was collected for 24 hours. Concentrations of protein in urine were measured by the sulfosalicylic acid method to determine amounts of protein excreted in the urine (mg/day). The inhibition rate of excretion of protein were calculated by the following equation. [formula]

First: C=CS(=O)(=O)NCC1Cc2ccc(-c3ccc(=O)[nH]n3)cc2C1 (stereo not drawn) [Example 4]
Second: C=CS(=O)(=O)NCCC1Cc2ccc(-c3ccc(=O)[nH]n3)cc2C1 (stereo not drawn) [Example 8]
The “Inhibition rate (of excretion of protein in urine)” value (“Inhibition rate” for short) of the first is lower: 61.5% for the first, 71.6% for the second.

Compared with `CCS(=O)(=O)NCCC1Cc2ccc(-c3ccc(=O)[nH]n3)cc2C1` (stereo not drawn) [Example 6], `CCCS(=O)(=O)NCCC1Cc2ccc(-c3ccc(=O)[nH]n3)cc2C1` (stereo not drawn) [Example 7] is higher in “Inhibition rate” value: 65.1% for the first, 77.2% for the second.

Going from `C=CS(=O)(=O)NCCCCC1Cc2ccc(-c3ccc(=O)[nH]n3)cc2C1` (stereo not drawn) [Example 12] to `C=CS(=O)(=O)NCCCC1Cc2ccc(-c3ccc(=O)[nH]n3)cc2C1` (stereo not drawn) [Example 19], the “Inhibition rate” value rises from 67.5% to 91.8%.
